Tested on: interferon-stimulated gene (ISG) response
Test: In vivo decitabine challenge model in C57BL/6 mice
Settings: kidneys, decitabine i.p. 5 mg/kg, compound 1, 10, 100 mg/kg p.o. once a day
Method: Exemplary compounds were tested for ability to alter the interferon-stimulated gene (ISG) response in C57BL/6 mice treated with decitabine. Assay procedures and results are described below. Twenty 9-11 week old C57BL/6 mice were acclimated to the lab for at least 5 days. Compound 23 was prepared in a 0.5% methylcellulose solution for p.o. administration. Decitabine (Sigma-Aldrich) was dissolved in sterile PBS (pH 7.4) and dosed within 30 minutes of preparation of the solution. Doses of both the compound and decitabine were administered once a day, every day from Day 0 to Day 4. […] The fold changes in interferon-stimulated gene (ISG) expression was calculated by first normalizing to GAPDH gene using the Delta CT method. The CT (gene of interest) —CT (reference gene) was calculated to generate a delta CT for all samples. […] The fold changes in interferon-stimulated gene (ISG, specifically IRF7 and MX1) expression was calculated by first normalizing to GAPDH gene using the Delta CT method. The CT (gene of interest)−CT (reference gene) was calculated to generate a delta CT for all samples. The fold change was then calculated by taking the […](Delta CT(control)−Delta CT (experimental). The control in this example was the PBS control animal group. Individual primers were used to amplify target genes.

Nc1ccn([C@H]2C[C@H](O)[C@](CO)(CCl)O2)c(=O)n1 [Compound 2, 4-amino-1-((2R,4S,5R)-5-(chloromethyl)-4-hydroxy-5-(hydroxymethyl)tetrahydrofuran-2-yl)pyrimidin-2(1H)-one]
change in ISG response (IRF7 and MX1), FIGS. 2B and 2C: shows a change in the ISG response

Source: patent US12187758B2 (ROME Therapeutics, Inc., priority 2022, dated 2025)
